Data published in patent US7803930B2, “Antisense modulation of apolipoprotein B-expression” (Isis Pharmaceuticals, Inc., priority 2002, dated 2010).
Blank lines part the entries; values can stand above or below the compound they belong to.

What was measured:
[1] = system: PTEN; experiment: ob/ob mice (Example 50): PTEN levels; assay type: in vivo, mouse; conditions: high fat high cholesterol diet, 50 mg/kg i.p. twice a week, six weeks
Experimental: (§1) Ob/ob mice receiving a high fat, high cholesterol diet (60% kcal fat supplemented with 0.15% cholesterol) were treated with one of several oligonucleotides to evaluate their effect on apolipoprotein B-related phenotypic endpoints in ob/ob mice. After overnight fasting, mice from each group were dosed intraperitoneally twice a week with 50 mg/kg of ISIS 147483 (SEQ ID NO: 79), or 147764 (SEQ ID NO: 109), or the controls ISIS 116847 (SEQ ID NO: 857), or 141923 (SEQ ID NO: 858), or saline for six weeks. At study termination and forty eight hours after the final injections, animals were sacrificed and evaluated for target mRNA levels in liver, cholesterol and triglyceride levels, liver enzyme levels, serum glucose levels, and PTEN levels.

[2] = system: apolipoprotein B mRNA; experiment: ob/ob mice (Example 50): apolipoprotein B mRNA levels in liver; assay type: in vivo, mouse; conditions: liver, high fat high cholesterol diet, 50 mg/kg i.p. twice a week, six weeks
Experimental: as §1

[3] = ob/ob mice (Example 50): cholesterol, lipid, triglyceride, liver enzyme and glucose levels; assay type: in vivo, mouse; conditions: high fat high cholesterol diet, 50 mg/kg i.p. twice a week, six weeks
Experimental: as §1

[4] = system: mouse apolipoprotein B mRNA; experiment: Inhibition of mouse apolipoprotein B mRNA levels in primary mouse hepatocytes, real-time PCR; assay type: cell-based
Experimental: Primary mouse hepatocytes were prepared from CD-1 mice purchased from Charles River Labs (Wilmington, Mass.) and were routinely cultured in Hepatoyte Attachment Media (Gibco) supplemented with 10% Fetal Bovine Serum (Gibco/Life Technologies, Gaithersburg, Md.), 250 nM dexamethasone (Sigma), and 10 nM bovine insulin (Sigma). Cells were seeded into 96-well plates (Falcon-Primaria #3872) at a density of 10000 cells/well for use in RT-PCR analysis.
When cells reached 80% confluency, they were treated with oligonucleotide. For cells grown in 96-well plates, wells were washed once with 200 μL OPTI-MEM™-1 reduced-serum medium (Gibco BRL) and then treated with 130 μL of OPTI-MEM™-1 containing 3.75 μg/mL LIPOFECTIN™ (Gibco BRL) and the desired concentration of oligonucleotide. After 4-7 hours of treatment, the medium was replaced with fresh medium. Cells were harvested 16-24 hours after oligonucleotide treatment.
Quantitation of apolipoprotein B mRNA levels was determined by real-time quantitative PCR using the ABI PRISM™ 7700 Sequence Detection System (PE-Applied Biosystems, Foster City, Calif.) according to manufacturer's instructions. This is a closed-tube, non-gel-based, fluorescence detection system which allows high-throughput quantitation of polymerase chain reaction (PCR) products in real-time. As opposed to standard PCR, in which amplification products are quantitated after the PCR is completed, products in real-time quantitative PCR are quantitated as they accumulate. This is accomplished by including in the PCR reaction an oligonucleotide probe that anneals specifically between the forward and reverse PCR primers, and contains two fluorescent dyes. A reporter dye (e.g., JOE, FAM, or VIC, obtained from either Operon Technologies Inc., Alameda, Calif. or PE-Applied Biosystems, Foster City, Calif.) is attached to the 5′ end of the probe and a quencher dye (e.g., TAMRA, obtained from either Operon Technologies Inc., Alameda, Calif. or PE-Applied Biosystems, Foster City, Calif.) is attached to the 3′ end of the probe. When the probe and dyes are intact, reporter dye emission is quenched by the proximity of the 3′ quencher dye. During amplification, annealing of the probe to the target sequence creates a substrate that can be cleaved by the 5′-exonuclease activity of Taq polymerase. […] With each cycle, additional reporter dye molecules are cleaved from their respective probes, and the fluorescence intensity is monitored at regular intervals by laser optics built into the ABI PRISM™ 7700 Sequence Detection System. In each assay, a series of parallel reactions containing serial dilutions of mRNA from untreated control samples generates a standard curve that is used to quantitate the percent inhibition after antisense oligonucleotide treatment of test samples.
Probes and primers to mouse apolipoprotein B were designed to hybridize to a mouse apolipoprotein B sequence, using published sequence information (GenBank accession number M35186, incorporated herein as SEQ ID NO: 10). For mouse apolipoprotein B the PCR primers were: forward primer: CGTGGGCTCCAGCATTCTA (SEQ ID NO: 11) reverse primer: […] (SEQ ID NO: 12) and the PCR probe was: FAM-[…]-TAMRA SEQ ID NO: 13) where FAM (PE-Applied Biosystems, Foster City, Calif.) is the fluorescent reporter dye) and TAMRA (PE-Applied Biosystems, Foster City, Calif.) is the quencher dye. For mouse GAPDH the PCR primers were: forward primer: […] (SEQ ID NO: 14) reverse primer: […] (SEQ ID NO:15) and the PCR probe was: 5′ JOE-[…]-TAMRA 3′ (SEQ ID NO: 16) where JOE (PE-Applied Biosystems, Foster City, Calif.) is the fluorescent reporter dye) and TAMRA (PE-Applied Biosystems, Foster City, Calif.) is the quencher dye.
In accordance with the present invention, a series of oligonucleotides was designed to target different regions of the mouse apolipoprotein B RNA, using published sequence (GenBank accession number M35186, incorporated herein as SEQ ID NO: 10). […]

[5] = High fat fed C57BL/6 mice, 6 week timecourse: serum AST and ALT levels; assay type: in vivo, mouse; conditions: daily oral dose of 20 mg/kg
Experimental: Male C57BL/6 mice (n=8) receiving a high fat diet (60% kcal fat) were evaluated over the course of 6 weeks for the effects of ISIS 147764 on liver enzyme (AST and ALT) levels. Increased levels of the liver enzymes ALT and AST indicate toxicity and liver damage. Control animals received saline treatment (50 mg/kg). […] AST and ALT levels were measured at 6 weeks.

[6] = High fat fed C57BL/6 mice, 6 week timecourse: body, spleen, liver and fat pad weight; assay type: in vivo, mouse; conditions: 20 mg/kg daily, six weeks, vs saline-treated controls
Experimental: Male C57BL/6 mice (n=8) receiving a high fat diet (60% kcal fat) were evaluated over the course of 6 weeks for the effects of ISIS 147764 on body, spleen, liver and fat pad weight. Control animals received saline treatment (50 mg/kg). […]
At study termination, animals were sacrificed 48 hours after the final injections and body, spleen, liver and fat pad weights were measured. Values are expressed as percent change in body weight or ogan weight compared to the saline-treated control animals. Negative values indicated a decrease in weight.

[7] = system: apolipoprotein B mRNA; experiment: LDLr(-/-) mice dose response (Example 44): apolipoprotein B mRNA; assay type: in vivo, mouse; conditions: 20 mg/kg, six weeks
Experimental: LDLr(−/−) mice, purchased from Taconic (Germantown, N.Y.) were used to evaluate antisense oligonucleotides for their potential to lower apolipoprotein B mRNA or protein levels, as well as phenotypic endpoints associated with apolipoprotein B. LDLr(−/−) mice were separated into groups of males and females. LDLr(−/−) mice were dosed intraperitoneally twice a week for six weeks with either 10, 25, or 50 mg/kg of ISIS 147764 (SEQ ID NO: 109) or ISIS 270906 (SEQ ID NO: 856) which is a 4 base mismatch of ISIS 147764, or with saline, or 20 mg/kg of Atorvastatin. At study termination animals were sacrificed and evaluated for several phenotypic markers.

[8] = system: apolipoprotein B mRNA; experiment: ApoE knockout mice (Example 28): target mRNA levels in liver; assay type: in vivo, mouse; conditions: high fat diet, 20 mg/kg daily
From the text: (§2) Female ApoE knockout mice ranged in age from 5 to 7 weeks and were placed on a normal diet for 2 weeks before study initiation. ApoE knockout mice were then fed ad libitum a 60% fat diet, with 0.15% added cholesterol to induce dyslipidemia and obesity. Control animals were maintained on a high-fat diet with no added cholesterol. […]
(§3) At study termination and forty eight hours after the final injections, animals were sacrificed and evaluated for target mRNA levels in liver by RT-PCR methods verified by Northern Blot analysis, glucose levels, cholesterol and lipid levels by HPLC separation methods and triglyceride and liver enzyme levels (performed by LabCorp Preclinical Services; San Diego, Calif.).
(§4) Data are normalized to saline controls.

[9] = High fat fed C57BL/6 mice, 6 week timecourse: serum cholesterol, triglyceride, lipoprotein and glucose levels; assay type: in vivo, mouse; conditions: for Percent Inhibition HDL / Percent Inhibition LDL / Percent Inhibition VLDL: 20 mg/kg daily oral, negative = increase
Experimental: Male C57BL/6 mice (n=8) receiving a high fat diet (60% kcal fat) were evaluated over the course of 6 weeks for the effects of treatment with the antisense oligonucleotide, ISIS 147764. Control animals received saline treatment (50 mg/kg). A subset of animals received a daily oral dose (20 mg/kg) atorvastatin calcium (Lipitor®, Pfizer Inc.). All mice, except atorvastatin-treated animals, were dosed intraperitoneally every three days (twice a week), after fasting overnight, with 5, 25, 50 mg/kg ISIS 147764 (SEQ ID No: 109) or saline (50 mg/kg) for six weeks. Serum cholesterol and lipoproteins were analyzed at 0, 2 and 6 week interim timepoints. At study termination, animals were sacrificed 48 hours after the final injections and evaluated for levels of target mRNA levels in liver, cholesterol, lipoprotein, triglyceride, liver enzyme (AST and ALT) and serum glucose levels as well as body, liver, spleen and fat pad weights.
(§5) Male C57BL/6 mice (n=8) receiving a high fat diet (60% kcal fat) were evaluated over the course of 6 weeks for the effects of ISIS 147764 on serum cholesterol and triglyceride levels. Control animals received saline treatment (50 mg/kg). Mice were dosed intraperitoneally every three days (twice a week), after fasting overnight, with 5, 25, 50 mg/kg ISIS 147764 (SEQ ID No: 109) or saline (50 mg/kg) for six weeks.
Values in the table are expressed as percent inhibition and are normalized to the saline control.
In addition to serum cholesterol, at study termination, animals were sacrificed 48 hours after the final injections and evaluated for triglyceride levels.
as §5, with “lipoprotein (VLDL, LDL” for “serum cholesterol”, “HDL)” for “triglyceride”
Values in the table are expressed as percent inhibition and are normalized to the saline control. Negative values indicate an observed increase in lipoprotein levels.
as §5, with “glucose” for “cholesterol and triglyceride”
At study termination, animals were sacrificed 48 hours after the final injections and evaluated for serum glucose levels. […] Mice treated with atorvastatin at a daily oral dose of 20 mg/kg had serum glucose levels of 215 mg/dL.

[10] = assay type: in vivo, mouse
From the text: as §2, §3, §4

[11] = ApoE knockout mice, high fat diet, 20 mg/kg daily

Compound: 116847 (antisense CTGCTAGCCTCTGGATTTGA; listed as DNA, chemistry not given here) [compound 116847]
- mRNA % control PTEN [1]: 20.0 % control
- mRNA % control ApoB [2]: 77.0 % control
- Glucose [3]: 135.5 mg/dL
- Lipoproteins CHOL [3]: 287.5 mg/dL
- Lipoproteins TRIG [3]: 196.5 mg/dL
- Liver Enzymes ALT [3]: 607.5 IU/L
- Liver Enzymes AST [3]: 343.2 IU/L

Compound: 147483 (ATGTCAATGCCACATGTCCA; phosphorothioate, 2'-MOE wings, chemistry not fully specified) [compound 147483]
- mRNA % control PTEN [1]: 143.2 % control
- mRNA % control ApoB [2]: 25.2 % control
- Glucose [3]: 213.2 mg/dL
- Lipoproteins CHOL [3]: 250.0 mg/dL
- Lipoproteins TRIG [3]: 99.8 mg/dL
- Liver Enzymes ALT [3]: 941.7 IU/L
- Liver Enzymes AST [3]: 790.2 IU/L
- Percent Inhibition 50 nM ([4]; Table 4, 50 nM): 56%
- Percent Inhibition 150 nM ([4]; Table 4, 150 nM): 88%
- Percent Inhibition 300 nM ([4]; Table 4, 300 nM): 89%

- Percent Change Liver weight [6]: 15%
- Percent Change Spleen weight [6]: 10%
- Percent Change Total Body Wt. [6]: 1%
Compound: CC(C)c1c(C(=O)Nc2ccccc2)c(-c2ccccc2)c(-c2ccc(F)cc2)n1CC[C@@H](O)C[C@@H](O)CC(=O)O [atorvastatin, atorvastatin calcium, reference compound]
- AST levels [5]: 85 IU/L
- AST levels (printed in the ALT paragraph) [5]: 40 IU/L
- Percent Change Fat (fat pad weight) [6]: 7%
- apolipoprotein B mRNA % control ([7]; female LDLr(-/-) mice): 109.0 % control
- apolipoprotein B mRNA % control ([7]; male LDLr(-/-) mice): 110.9 % control
- mRNA Percent Inhibition [8]: 10%
- Percent Inhibition HDL ([9]; 0 weeks): 0%
- Percent Inhibition LDL ([9]; 0 weeks): 0%
- Percent Inhibition VLDL ([9]; 0 weeks): 0%
- Percent Inhibition HDL ([9]; 2 weeks): 15%
- Percent Inhibition LDL ([9]; 2 weeks): 10%
- Percent Inhibition VLDL ([9]; 2 weeks): 15%
- Percent Inhibition HDL ([9]; 6 weeks): 20%
- Percent Inhibition LDL ([9]; 6 weeks): −10%
- Percent Inhibition VLDL ([9]; 6 weeks): −5%
- serum glucose levels ([9]; daily oral dose of 20 mg/kg): 215 mg/dL
- decrease in serum cholesterol ([9]; oral dose of 20 mg/kg, study termination): 20%
- Cholesterol Levels [10, 11]: 938 mg/dL
- Glucose Levels [10, 11]: 162 mg/dL
- Lipoprotein Levels HDL [10, 11]: 42 mg/dL
- Lipoprotein Levels LDL [10, 11]: 250 mg/dL
- Lipoprotein Levels VLDL [10, 11]: 653 mg/dL
- Liver Enzyme Levels ALT ([10]; mouse, in vivo, 20 mg/kg): 76 IU/L
- Liver Enzyme Levels AST ([10]; mouse, in vivo, 20 mg/kg): 75 IU/L
